Active and inactive are the calls of the source.
What was measured:
[1] = molecular target: T1, Mannose-6-phosphate isomerase (Homo sapiens, UniProt P34949); assay: MPI enzyme activity inhibition – biochemical, fluorescence intensity, coupled assay, primary screen (AID 1209)
T1 sequence (P34949 whole entry): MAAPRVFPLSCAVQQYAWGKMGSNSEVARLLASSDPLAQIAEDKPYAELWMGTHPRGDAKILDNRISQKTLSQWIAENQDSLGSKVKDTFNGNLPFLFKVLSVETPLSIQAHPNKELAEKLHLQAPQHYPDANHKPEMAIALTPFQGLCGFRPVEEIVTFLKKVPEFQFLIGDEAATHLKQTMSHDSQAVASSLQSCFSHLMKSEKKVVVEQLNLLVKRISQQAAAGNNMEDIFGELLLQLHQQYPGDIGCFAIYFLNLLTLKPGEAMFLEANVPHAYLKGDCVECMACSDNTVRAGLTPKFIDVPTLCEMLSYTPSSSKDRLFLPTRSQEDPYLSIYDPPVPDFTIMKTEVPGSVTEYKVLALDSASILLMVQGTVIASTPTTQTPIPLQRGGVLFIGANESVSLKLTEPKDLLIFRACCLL

[2] = molecular target: T1, Mannose-6-phosphate isomerase; assay: MPI inhibition at elevated mannose 6-phosphate – biochemical, fluorescence intensity, high mannose 6-phosphate, primary screen (AID 1220)
[3] = molecular target: T2, Replicative DNA helicase DnaB (Mycobacterium tuberculosis, UniProt P9WMR3); assay: DnaB intein splicing inhibitors, dose response, biochemical, cell-free fluorescence (AID 449749); assay type: functional
T2 sequence (P9WMR3 whole entry): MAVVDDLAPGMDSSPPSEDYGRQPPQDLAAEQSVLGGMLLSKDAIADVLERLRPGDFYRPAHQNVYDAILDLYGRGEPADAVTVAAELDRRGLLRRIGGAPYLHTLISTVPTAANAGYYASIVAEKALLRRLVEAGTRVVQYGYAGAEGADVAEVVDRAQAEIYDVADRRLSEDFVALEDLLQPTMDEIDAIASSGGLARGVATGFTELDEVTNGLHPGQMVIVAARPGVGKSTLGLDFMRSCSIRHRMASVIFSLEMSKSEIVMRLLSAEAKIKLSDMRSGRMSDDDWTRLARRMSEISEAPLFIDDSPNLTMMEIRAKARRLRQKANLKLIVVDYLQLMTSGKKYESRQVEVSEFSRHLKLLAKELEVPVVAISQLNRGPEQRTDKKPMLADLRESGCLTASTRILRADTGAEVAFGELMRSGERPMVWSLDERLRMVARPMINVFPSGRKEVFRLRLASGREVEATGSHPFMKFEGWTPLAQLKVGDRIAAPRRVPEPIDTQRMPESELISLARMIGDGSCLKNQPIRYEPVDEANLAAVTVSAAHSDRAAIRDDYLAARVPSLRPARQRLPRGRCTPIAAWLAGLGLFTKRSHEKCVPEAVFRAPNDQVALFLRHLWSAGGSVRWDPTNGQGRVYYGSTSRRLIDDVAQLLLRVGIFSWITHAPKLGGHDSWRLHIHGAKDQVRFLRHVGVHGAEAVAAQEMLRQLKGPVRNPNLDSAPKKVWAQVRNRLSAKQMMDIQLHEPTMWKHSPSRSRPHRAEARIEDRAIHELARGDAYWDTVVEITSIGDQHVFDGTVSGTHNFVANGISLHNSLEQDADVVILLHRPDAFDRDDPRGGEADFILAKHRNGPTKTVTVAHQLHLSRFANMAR

Protein RecA = molecular target: T3, Protein RecA (Mycobacterium tuberculosis, UniProt P9WHJ3); assay: Fluorescence Cell-Free Homogeneous Dose Retest to Identify Inhibitors of RecA-Intein Splicing Activity. [Related pubchem assays (depositor defined):AID2097, AID2223, AID489010, AID492950]; assay type: functional
T3 sequence (P9WHJ3 whole entry): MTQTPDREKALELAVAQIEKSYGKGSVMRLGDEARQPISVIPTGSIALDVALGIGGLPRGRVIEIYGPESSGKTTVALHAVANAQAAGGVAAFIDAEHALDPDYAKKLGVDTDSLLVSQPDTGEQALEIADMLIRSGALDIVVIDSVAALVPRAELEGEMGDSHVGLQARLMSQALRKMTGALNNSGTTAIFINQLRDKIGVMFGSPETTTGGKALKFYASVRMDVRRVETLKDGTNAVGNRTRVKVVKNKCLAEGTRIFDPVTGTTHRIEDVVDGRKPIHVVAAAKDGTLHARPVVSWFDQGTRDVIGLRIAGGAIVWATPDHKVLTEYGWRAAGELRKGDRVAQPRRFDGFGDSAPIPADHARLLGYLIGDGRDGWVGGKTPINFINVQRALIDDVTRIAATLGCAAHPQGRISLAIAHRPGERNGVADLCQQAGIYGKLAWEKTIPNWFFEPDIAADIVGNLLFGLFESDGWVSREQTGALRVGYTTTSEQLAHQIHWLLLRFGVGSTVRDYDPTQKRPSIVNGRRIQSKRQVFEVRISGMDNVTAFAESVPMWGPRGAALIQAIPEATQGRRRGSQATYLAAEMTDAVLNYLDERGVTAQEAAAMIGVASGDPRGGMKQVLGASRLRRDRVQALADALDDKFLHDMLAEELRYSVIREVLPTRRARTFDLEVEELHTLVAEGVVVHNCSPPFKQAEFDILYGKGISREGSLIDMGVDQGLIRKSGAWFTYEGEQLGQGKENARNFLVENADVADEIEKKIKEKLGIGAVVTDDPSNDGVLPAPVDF

Protein skinhead-1 = molecular target: T4, Protein skinhead-1 (Caenorhabditis elegans, UniProt P34707); assay type: functional
T4 sequence (P34707 whole entry): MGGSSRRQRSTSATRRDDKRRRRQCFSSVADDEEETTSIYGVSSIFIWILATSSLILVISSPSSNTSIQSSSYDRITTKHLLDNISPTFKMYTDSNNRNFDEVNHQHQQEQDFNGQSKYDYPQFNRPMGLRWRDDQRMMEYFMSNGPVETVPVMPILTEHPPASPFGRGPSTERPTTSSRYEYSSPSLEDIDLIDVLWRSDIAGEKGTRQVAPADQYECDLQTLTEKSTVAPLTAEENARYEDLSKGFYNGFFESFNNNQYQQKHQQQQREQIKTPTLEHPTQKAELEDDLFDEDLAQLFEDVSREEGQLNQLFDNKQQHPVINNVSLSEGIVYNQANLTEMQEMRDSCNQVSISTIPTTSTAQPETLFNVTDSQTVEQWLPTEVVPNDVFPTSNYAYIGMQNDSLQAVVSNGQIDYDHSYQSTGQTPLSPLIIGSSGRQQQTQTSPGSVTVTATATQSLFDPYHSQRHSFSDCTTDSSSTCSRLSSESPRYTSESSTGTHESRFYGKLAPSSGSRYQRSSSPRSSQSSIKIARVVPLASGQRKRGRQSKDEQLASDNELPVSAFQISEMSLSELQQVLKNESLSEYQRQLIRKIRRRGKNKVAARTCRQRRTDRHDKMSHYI

[4] = Counterscreen for IDE inhibitors: Luminescence-based cell-based high throughput dose response assay to identify compounds that are cytotoxic to HEK cells. [Related pubchem assays: 434962 (Primary screen (IDE inhibitors in singlicate)), 449730 (Counterscreen (Cytotoxicity in triplicate)), 435028 (Confirmation (IDE inhibitors in triplicate)) …; assay type: functional; settings: HEK293
Insulin-degrading enzyme = molecular target: T5, Insulin-degrading enzyme (Homo sapiens, UniProt P14735); assay: Dose Response: Fluorescence polarization-based cell-based high throughput dose response assay for inhibitors of insulin-degrading enzyme (IDE). [Related pubchem assays: 434962 (Primary screen (IDE inhibitors in singlicate)), 449730 (Counterscreen (Cytotoxicity in triplicate)), 435028 (Confirmation (IDE inhibitors in triplicate)), 434984 (Summary …; assay type: functional
T5 sequence (P14735 whole entry): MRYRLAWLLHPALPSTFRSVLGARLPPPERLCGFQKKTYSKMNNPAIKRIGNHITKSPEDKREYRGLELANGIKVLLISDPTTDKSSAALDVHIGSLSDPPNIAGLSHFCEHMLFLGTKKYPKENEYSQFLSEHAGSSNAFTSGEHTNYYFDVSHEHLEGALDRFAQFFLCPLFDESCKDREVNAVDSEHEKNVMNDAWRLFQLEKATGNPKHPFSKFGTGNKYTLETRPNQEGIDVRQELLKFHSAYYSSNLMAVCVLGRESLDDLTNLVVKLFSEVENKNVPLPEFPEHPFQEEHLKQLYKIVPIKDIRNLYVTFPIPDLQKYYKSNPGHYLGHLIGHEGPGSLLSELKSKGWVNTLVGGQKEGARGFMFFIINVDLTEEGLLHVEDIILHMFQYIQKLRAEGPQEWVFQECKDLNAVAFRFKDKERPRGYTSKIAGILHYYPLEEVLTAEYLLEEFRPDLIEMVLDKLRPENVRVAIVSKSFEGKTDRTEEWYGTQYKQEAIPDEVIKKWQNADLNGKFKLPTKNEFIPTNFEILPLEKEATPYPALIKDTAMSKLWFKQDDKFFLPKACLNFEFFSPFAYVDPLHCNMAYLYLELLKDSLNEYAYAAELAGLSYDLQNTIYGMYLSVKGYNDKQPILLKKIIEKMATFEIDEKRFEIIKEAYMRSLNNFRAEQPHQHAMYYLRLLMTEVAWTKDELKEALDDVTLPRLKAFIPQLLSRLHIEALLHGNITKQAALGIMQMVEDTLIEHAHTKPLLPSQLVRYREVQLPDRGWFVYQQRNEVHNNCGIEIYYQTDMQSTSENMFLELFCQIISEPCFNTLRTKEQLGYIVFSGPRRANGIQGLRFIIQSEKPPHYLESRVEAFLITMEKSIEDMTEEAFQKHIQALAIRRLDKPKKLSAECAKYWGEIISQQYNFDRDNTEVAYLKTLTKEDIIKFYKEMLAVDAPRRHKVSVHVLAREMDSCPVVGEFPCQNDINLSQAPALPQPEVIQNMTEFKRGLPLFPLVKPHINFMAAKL

[5] = Luminescence-based counterscreen assay for KLF5 inhibitors: dose response cell-based high throughput screening assay to identify cytotoxic compounds using the IEC-6 intestinal epithelial cell line. [Related pubchem assays: 1700 (Primary screen.), 1834 (Confirmation screen.), 1858 (Summary AID.), 1905 (Counterscreen.)]; assay type: functional

## CCN(CC)c1ccc2oc(=O)c(C)nc2c1
[1]
  IC50: 10 µM (active)
[2]
  IC50: 12.7 µM (active)
[3]
  AC50: > 380 µM (inactive)
Protein RecA
  EC50: 7.63 µM (active)
Protein skinhead-1
  IC50: > 100 µM (inactive)

## CC(C)(C)C(=O)N1CCN(c2ccnc3cc(Cl)ccc23)CC1
[4]
  IC50: 20.8 µM (not active)
Insulin-degrading enzyme
  IC50: 18.6 µM (not active)

## COc1ccc2nc(SCC(=O)NC3CCCC3)c(C)cc2c1
[5]
  IC50: 16 µM (not active)
